Data reported in patent US4766222A, “Novel class of acyl-derivatives of carnitine process for preparing same and therapeutic use thereof” (Sigma-Tau Industrie Farmacuetiche Riunite S.p.A., priority 1980, dated 1988).
Read-outs that look alike come from different tables or passages of the source.

Columns and labels:
[1] = system: arrythmia induced by Aconitine in mice; test: animal or person; type: in vivo; conditions: for change in vivo at 40 mg/kg / change in vivo at 8.9 mg/kg / change in vivo at 100 mg/kg / change in vivo at 25 mg/kg / change in vivo at 35 mg/kg / change in vivo at 50 mg/kg / change in vivo at 20 mg/kg: Mus musculus, iv; for % increase of the latency time to onset of initial cardiac arrythmia / % increase of the latency time to onset of tachycardia: with respect to the control group
Description: The antiarrhythmic effect of the compounds was also investigated in mice according to the P. W. Nwangwu, T. Holcslow procedure (P. W. Nwangwu, T. L. Holcslow; Arch. Int. Pharmacodyn. 229, 219 (1977)). Using aconitine (5γ/ml) as arrhythmogenic agent, the changes in the cardiac rhythm of the animals were recorded and the onset time of initial arrhythmia and/or of ventricular tachycardia were used as end point.

in vivo = type: in vivo; conditions: mouse, in vivo, ip; i.p. in mice; N = 5, K = 4; read-out: LD50 and fiducial limits
Excerpt: (§1) The acute toxicity of the compounds of general formula (I) was investigated in mice using the Weil method (Weil C. S., Biometr. J. 8, 249, 1952).

[2] = system: rabbit's heart "in vitro"; test: cardiokinetic effect: contractile force of isolated rabbit heart (Langendorff) after anoxia; conditions: 10^-6 M; 10 minutes from the interruption of the anoxic period; control 26.93 ± 5.31
Description: The cardiokinetic effect was investigated on rabbit hearts isolated by the Langendorff method. […] The isometric contractions, electro-cardiogram and coronary flow were recorded using a "Battaglia-Rangoni" polygraph. By removing the oxygen from the perfusion fluid, metabolic damage was induced in the cardiac muscle, up to an 80% reduction in the cardiac contractile force. Under these conditions of prolonged anoxia the aerobic glycolysis of the myocardium is slowed down with attendant formation of acid catabolites due to both the accumulation of pyruvic acid and its conversion to lactic acid which cannot be utilized because of the depression of pyridine enzymes, such as LDH (lactodehydrogenase). This has repercussions on the anaerobic glycolysis affecting an ever increasing number of enzymes, accompanied by a progressive and increasingly critical exhaustion of the myocardium. Thus a whole series of cardiac muscle fatigue levels occurs which can be observed by the behaviour of the examined parameters, namely the contractile force, coronary flow, heart rate and cardiac rhythm. As soon as the contractile force was reduced by 80%, the perfusion fluid was once again oxygenated either without adding other compounds (controls) or with the addition of the compounds under examination.

mice = test: in vivo; type: in vivo; conditions: i.p. in mice; N = 5, K = 4
Excerpt: as §1

[3] = system: plasma cholesterol (Chol.) triglycerides (TG) and α-, β- and pre-β-lipoproteins; test: plasma cholesterol, triglycerides and lipoproteins in rats treated with olive oil; type: in vivo; conditions: olive oil 15 ml kg^-1, N = 6; for % Lipoproteins β: control 16.12 ± 1.48; for % Lipoproteins α: control 23.28 ± 2.19; for % Lipoproteins pre-β: control 56.45 ± 2.36; for Chol. (plasma cholesterol): control 96.18 ± 4.16; for TG (plasma triglycerides): control 215.36 ± 20.18
[4] = read-out: % increase of the latency time to onset of initial cardiac arrythmia
[5] = read-out: % increase of the latency time to onset of tachycardia

CC(C)C(O)C(=O)OC(CC(=O)O)C[N+](C)(C)C (centres unmarked) [2-hydroxy isovaleryl CAR]
change in vivo at 40 mg/kg [1, 4]: 60% | change in vivo at 40 mg/kg [1, 5]: 30% | LD50 (in vivo): 1580 mg/kg

CC(C=O)C(=O)OC(CC(=O)[O-])C[N+](C)(C)C (centres unmarked) [formyl propionyl CAR]
% increase of the latency time to onset of initial cardiac arrythmia ([1]; 60 mg kg^-1 i.v.): 55% | % increase of the latency time to onset of tachycardia ([1]; 60 mg kg^-1 i.v.): 34% | contractile force, mean ± ESM [2]: 74.26 ± 4.15% | LD50 and fiducial limits (mice): 1010 (850-1170) mg kg^-1

C=C[C@H]1C[N@@]2CC[C@H]1C[C@@H]2[C@@H](O)c1ccnc2ccc(OC)cc12 [Quinidine, reference compound]
change in vivo at 8.9 mg/kg [1, 4]: 50% | change in vivo at 8.9 mg/kg [1, 5]: 41.7%

vinyl acetyl carnitine chloride [vinyl CAR]
% increase of the latency time to onset of initial cardiac arrythmia ([1]; 38 mg kg^-1 i.v.): 53% | % increase of the latency time to onset of tachycardia ([1]; 38 mg kg^-1 i.v.): 41% | contractile force, mean ± ESM [2]: 48.25 ± 5.12% | LD50 and fiducial limits (mice): 1200 (800-1600) mg kg^-1 | % Lipoproteins β ([3]; 300 mg kg^-1 oral): 14.13 ± 1.63% | % Lipoproteins α ([3]; 300 mg kg^-1 oral): 29.46 ± 3.15% | % Lipoproteins pre-β ([3]; 300 mg kg^-1 oral): 48.89 ± 2.96% | Chol. (plasma cholesterol) ([3]; 300 mg kg^-1 oral): 78.15 ± 6.16 mg/100 ml | TG (plasma triglycerides) ([3]; 300 mg kg^-1 oral): 112.15 ± 15.16 mg/100 ml

C[N+](C)(C)CC(CC(=O)O)OC(=O)CC1C=CCC1 (centres unmarked) [2-cyclopenten ACAR]
change in vivo at 100 mg/kg [1, 4]: 40% | change in vivo at 100 mg/kg [1, 5]: 20% | LD50 (in vivo): 1200 mg/kg

CC(C)(C)CC(=O)OC(CC(=O)O)C[N+](C)(C)C (centres unmarked) [tert-butyl ACAR]
change in vivo at 25 mg/kg [1, 4]: 59% | change in vivo at 25 mg/kg [1, 5]: 36% | LD50 (in vivo): 1120 mg/kg | % Lipoproteins β ([3]; 350 mg kg^-1 oral): 13.27 ± 1.12% | % Lipoproteins α ([3]; 350 mg kg^-1 oral): 31.12 ± 2.17% | % Lipoproteins pre-β ([3]; 350 mg kg^-1 oral): 51.36% | Chol. (plasma cholesterol) ([3]; 350 mg kg^-1 oral): 70.12 ± 3.24 mg/100 ml | TG (plasma triglycerides) ([3]; 350 mg kg^-1 oral): 99.36 ± 10.12 mg/100 ml

CC(C)(O)C(=O)OC(CC(=O)O)C[N+](C)(C)C (centres unmarked) [2-hydroxy isobutyryl CAR]
change in vivo at 25 mg/kg [1, 4]: 55% | change in vivo at 25 mg/kg [1, 5]: 48% | LD50 (in vivo): 1470 mg/kg | % Lipoproteins β ([3]; 450 mg kg^-1 oral): 10.36 ± 1.12% | % Lipoproteins α ([3]; 450 mg kg^-1 oral): 27.19 ± 3.48% | % Lipoproteins pre-β ([3]; 450 mg kg^-1 oral): 48.36 ± 1.15% | Chol. (plasma cholesterol) ([3]; 450 mg kg^-1 oral): 75.03 ± 4.12 mg/100 ml | TG (plasma triglycerides) ([3]; 450 mg kg^-1 oral): 100.29 ± 12.48 mg/100 ml

C[N+](C)(C)CC(CC(=O)O)OC(=O)CC1CCCCC1 (centres unmarked) [cyclohexyl ACAR, cyclohexyl acetyl carnitine chloride]
change in vivo at 35 mg/kg [1, 4]: 63% | change in vivo at 35 mg/kg [1, 5]: 44% | LD50 (in vivo): 850 mg/kg | % Lipoproteins β ([3]; 400 mg kg^-1 oral): 12.15 ± 1.09% | % Lipoproteins α ([3]; 400 mg kg^-1 oral): 36.48 ± 2.36% | % Lipoproteins pre-β ([3]; 400 mg kg^-1 oral): 49.12% | Chol. (plasma cholesterol) ([3]; 400 mg kg^-1 oral): 85.15 ± 4.26 mg/100 ml | TG (plasma triglycerides) ([3]; 400 mg kg^-1 oral): 100.12 ± 15.16 mg/100 ml

C=CC(=O)OC(CC(=O)O)C[N+](C)(C)C (centres unmarked) [acrilyl-CAR]
change in vivo at 50 mg/kg [1, 4]: 45% | change in vivo at 50 mg/kg [1, 5]: 39% | LD50 (in vivo): 1380 mg/kg

CCOCC(=O)OC(CC(=O)O)C[N+](C)(C)C (centres unmarked) [ethoxy ACAR, ethoxy acetyl carnitine chloride]
change in vivo at 20 mg/kg [1, 4]: 60% | change in vivo at 20 mg/kg [1, 5]: 55% | LD50 (in vivo): 2120 mg/kg | % Lipoproteins β ([3]; 250 mg kg^-1 oral): 10.28 ± 1.52% | % Lipoproteins α ([3]; 250 mg kg^-1 oral): 37.15 ± 2.17% | % Lipoproteins pre-β ([3]; 250 mg kg^-1 oral): 42.15 ± 2.27% | Chol. (plasma cholesterol) ([3]; 250 mg kg^-1 oral): 70.26 ± 6.48 mg/100 ml | TG (plasma triglycerides) ([3]; 250 mg kg^-1 oral): 78.25 ± 10.12 mg/100 ml

COCC(=O)OC(CC(=O)O)C[N+](C)(C)C (centres unmarked) [methoxy ACAR, methoxy acetyl carnitine chloride]
change in vivo at 25 mg/kg [1, 4]: 65% | change in vivo at 25 mg/kg [1, 5]: 50% | LD50 (in vivo): 1980 mg/kg

COC(=O)CCC(=O)OC(CC(=O)O)C[N+](C)(C)C (centres unmarked) [3-carbomethoxypropionyl CAR, 3-carbomethoxypropionyl carnitine chloride]
change in vivo at 25 mg/kg [1, 4]: 65% | change in vivo at 25 mg/kg [1, 5]: 39% | LD50 (in vivo): 985 mg/kg | % Lipoproteins β ([3]; 350 mg kg^-1 oral): 11.18 ± 1.15% | % Lipoproteins α ([3]; 350 mg kg^-1 oral): 34.17 ± 3.23% | % Lipoproteins pre-β ([3]; 350 mg kg^-1 oral): 50.03% | Chol. (plasma cholesterol) ([3]; 350 mg kg^-1 oral): 69.25 ± 3.26 mg/100 ml | TG (plasma triglycerides) ([3]; 350 mg kg^-1 oral): 88.15 ± 15.36 mg/100 ml

CCOCC(=O)O[C@H](CC(=O)O)C[N+](C)(C)C.[Cl-] [ethoxyacetyl CAR]
% increase of the latency time to onset of initial cardiac arrythmia ([1]; 100 mg kg^-1 i.v.): 40% | % increase of the latency time to onset of tachycardia ([1]; 100 mg kg^-1 i.v.): 20% | contractile force, mean ± ESM [2]: 62.25 ± 3.24% | LD50 and fiducial limits (mice): 760 (545-975) mg kg^-1
